Measured values reported in patent US12280088B2, “Dry powder formulation of caveolin-1 peptides and methods of use thereof” (BOARD OF REGENTS, THE UNIVERSITY OF TEXAS SYSTEM, priority 2018, dated 2025).
Converted amounts (≈) assume the structure as drawn. Peptide text beside a SMILES is read from it.

Assays:
[1] = Stability study of milled CSP7 (ammonium counterion): geometric particle size distribution (Sympatec HELOS, RODOS); assay type: physicochemical; details: not stored (Unprocessed / Initial)
Description: (§1) Stability study for milled CSP7 (ammonium counterion) from Lot #UTA181028. The stability of milled CSP7 powder was investigated under different storage conditions for a period of up to 6 months. Milled CSP7 peptide is packaged as two forms, bulk milled powder and encapsulated milled powder. For storage as bulk milled powder, 0.21-0.24 g peptide is filled in 20 mL scintillation vials (Kimble®, DWK Life Sciences, Millville, N.J., US) and stored within a heat-sealed foil pouch (Impak Corp, Los Angeles, Calif., US) containing two bags of 1 g silica gel desiccant (Tyvek®, Sorbco Packaging LLC, Belen, N. Mex., US) in each pouch. Milled peptide powder is also encapsulated in size 3 HPMC capsules (Capsugel, Morristown, N.J., US) in a weight of about 11±5% mg, and 22-26 capsules are then packaged in HDPE bottles (Drug Plastic, Boyertown, Pa., US), followed by sealing the HDPE bottle within a foil pouch (without desiccant). Packages are stored in stability chambers at the following storage conditions: −20° C., 25° C./60% RH, and 40° C./75% RH. Samples are removed for testing at 1, 3, and 6 months (Table 38). For tests except the aerodynamic particle size distribution, encapsulated powder was removed from the capsule and mixed in a glass vial by rotating the vial.
Geometric particle size distribution. GPSD of CSP7 powder was analyzed before and after milling using a Sympatec HELOS laser diffraction instrument (Sympatec GmbH, Germany) equipped with RODOS dispersion. Measurements are taken every 10 ms following powder dispersion at 3 bar. Measurements that are between 5 and 25% optical density were averaged to determine particle size distribution. The particle sizes by volume are reported at percentiles of 10, 50, and 90 (e.g., Dv 10, Dv 50, and Dv 90), respectively, as well as the percentages of particles falling into 1-5 μm size range. The results are shown in 41.

[2] = physchem; assay type: physicochemical
Description: Solubility of neat (i.e., not milled) CSP7 ammonium counterion form (Table 35) was performed by adding excess amount of peptide powder into 3 mL different pH buffers (Table 36) and mixing on orbital shaker at 100 rpm for 24 hours at room temperature. The solubility and freeze-thaw samples were filtered through a 0.45 μm membrane prior to being assayed by performing High Performance Liquid Chromatography (HPLC, Thermo Fisher Scientific, Fair Lawn, N.J.). Briefly, samples were analyzed using Dionex 3000 HPLC system equipped with a Waters® reversed phase C18 column 2.5 μm, 150 mm×4.60 mm. The HPLC column was heated to 60° C. for testing, and the peptide was detected at a wavelength of 215 nm and a 1 mL/min flow rate. The two mobile phases were A (0.1% acetic acid in water) and B (0.1% acetic acid in acetonitrile). The injection volume was 20 μL and the standard curve was plotted from 0.01-1 mg/ml.

[3] = Stability study of milled CSP7 (ammonium counterion): aerodynamic particle size distribution by NGI; assay type: physicochemical; details: Lot#UTA181028; Unprocessed
Description: Determination of aerodynamic particle size distribution of milled CSP7 bulk powder. Around 3.5 mg of milled CSP7 powder was manually filled into size 3 HPMC capsules (Capsugel, Peapack, N.J.). CSP7 capsules were then aerosolized using a RS01 Monodose Dry Powder Inhaler (high resistance) and aerodynamic particle size distribution was measured by a Next Generation Impactor (NGI, MSP Corp., Shoreview, Minn.). Aerosols were produced over 4 s at an air flow rate of 60 L/min for the inhaler to achieve an inhalation volume of 4 L and 4 kPa pressure drop across the device. Before each run, NGI collection surfaces were coated with 5% (v/v) polysorbate 20 in methanol. One capsule was shot for each run and each sample was ran in triplicate repetitions (three capsules). After aerosolization, all collection surfaces were rinsed with specific volumes of 20 mM Tris buffer (pH 10.3) to collect the drug. Powders deposited in the capsule, device, adaptor, throat, pre-separator, and stages 1-MOC were extracted respectively.
For each test, delivered dose is defined as the mass of CSP7 that entered the NGI. Geometric standard deviation (GSD), mass median aerodynamic diameter (MMAD) and fine particle fraction % (FPF %) are calculated and analyzed with Copley Inhaler Testing Data Analysis Software (CITDAS, Copley Scientific, Nottingham UK), based on the doses deposited on stages 1-MOC of NGI. The FPF is defined as the mass fraction of particles less than 5.0 μm with the delivered dose.
as §1
Aerodynamic particle size distribution: The aerodynamic particle size distribution was evaluated by performing NGI as described in Example 1, except that the powder weight in the tested capsule was 11±5% mg and pre-separator was removed in the assembly of the NGI in stability study.

[4] = test system: Bleomycin Induced Lung Fibrosis; experiment: Bleomycin induced lung fibrosis in mice, Ashcroft score; assay type: in vivo; details: dry powder inhalation after bleomycin induction, vs bleomycin only
Description: Preparation and lysis of lung tissues. Female mice, ages 6-8 weeks are ordered from Jackson Laboratories, stock: 000664 C57BL/6J are cared for and housed according to IACUC guidelines. The following week, mice are weighed, anesthetized with an IP injection of 80 mg/kg Ketamine & 6 mg/kg Xylazine (approx. 115 ul/mouse) and subjected to a single intratracheal installation of bleomycin. Briefly, a 26G plastic catheter is inserted into the trachea and mice receive, via pipette, 2×20 ul installations (spaced 30 s apart to allow clearance from the airways) of 0.8 U/kg bleomycin (Biotang, Cat #RB003). Controls receive the same volume of saline only. Weight is tracked (approximately 10% weight loss occurs in injured animals) and animals are subjected to a dry powder inhalation protocol (CH technologies) daily for one week. […] Images were captured with Aperio AT2 high volume, digital whole slide scanner and lungs were scored for fibrotic injury according to modified Ashcroft scoring protocol (Hubner et al., 2008, incorporated herein by reference). […] The colormetric assay was read on a microplate reader (FilterMax F5, Molecular Devices, 580 nm). […]
Lung tissues were homogenized and collagen content was analyzed using the Quickzyme collagen assay (FIG. 30). […]

[5] = pH-solubility of polypeptide variants; assay type: physicochemical
Description: Solubility study of variants was performed by adding variants powders into solvent in concentration of 5 mg/ml and then vortexing for 3 min. Observe the appearance of solutions in 5 min. Add more powder (˜5 mg/ml each time) and repeat vortex and observe until precipitation or gelation occurs.

[6] = Geometric particle size by Sympatec laser diffraction, wet dispersion; assay type: physicochemical
Description: The particle sizes were next determined by Sympatec laser diffraction by a wet dispersion method. CSP7 was dissolved in ethanol +0.05% Tween 80 as dispersion medium and sonicated 10 min.

CC(C)[C@H](NC(=O)[C@@H](NC(=O)[C@H](Cc1ccccc1)NC(=O)[C@@H](NC(=O)[C@@H](NC(=O)[C@@H](N)Cc1ccccc1)[C@@H](C)O)[C@@H](C)O)[C@@H](C)O)C(=O)N[C@H](C(=O)O)[C@@H](C)O [CSP7 (ammonium counterion), FTTFTVT] (H-FTTFTVT-OH; N-terminus and C-terminus assumed)
% 1-5 μm [1]: 47.0 ± 0.9%
Dv 10 [1]: 1.2 ± 0 μm
Dv 50 [1]: 4.5 ± 0.1 μm
Dv 90 [1]: 15.7 ± 0.8 μm
solubility thermodynamic at 24 h ([2]; pH 3, aqueous buffer): 170 µg/mL
solubility thermodynamic at 24 h ([2]; pH 4, aqueous buffer): 70 µg/mL
solubility thermodynamic at 24 h ([2]; pH 5, aqueous buffer): 50 µg/mL
solubility thermodynamic at 24 h ([2]; pH 6, aqueous buffer): 70 µg/mL
solubility thermodynamic at 24 h ([2]; pH 7, aqueous buffer): 100 µg/mL
solubility thermodynamic at 24 h ([2]; pH 8, aqueous buffer): 380 µg/mL
solubility thermodynamic at 24 h ([2]; pH 9, aqueous buffer): 2300 µg/mL
solubility thermodynamic at 24 h ([2]; pH 10, aqueous buffer): 7870 µg/mL
solubility thermodynamic at 24 h ([2]; pH 11, aqueous buffer): 14400 µg/mL
EF % [3]: 92.8%
FPD [3]: 4.2 mg
FPF % [3]: 48.4%
GSD [3]: 4.67
MMAD [3]: 3.09 μm

CC(C)[C@H](NC(=O)[C@@H](NC(=O)[C@H](Cc1ccccc1)NC(=O)[C@@H](NC(=O)[C@@H](NC(=O)[C@@H](N)Cc1ccccc1)[C@@H](C)O)[C@@H](C)O)[C@@H](C)O)C(=O)N[C@H](C(=O)O)[C@@H](C)O [CSP7, FTTFTVT] (H-FTTFTVT-OH; N-terminus and C-terminus assumed)
Ashcroft score [4]: lower
solubility thermodynamic at 3 min ([5]; pH 4.5): 150 µg/mL (≈ 184 µM)
solubility thermodynamic at 3 min ([5]; pH 5.5): 160 µg/mL (≈ 196 µM)
solubility thermodynamic at 3 min ([5]; pH 6.5): 160 µg/mL (≈ 196 µM)
solubility thermodynamic at 3 min ([5]; pH 7.5): 310 µg/mL (≈ 380 µM)
solubility thermodynamic at 3 min ([5]; pH 8.5): 1430 µg/mL (≈ 1750 µM)
Dv 50 [6]: 29.0±0.8 μm
